{"source": "ChEMBL document CHEMBL3286227", "about": "“Guanidinium-based derivatives: searching for new kinase inhibitors” (Eur J Med Chem, 2014)", "key": {"[1]": {"test_system": "HL-60", "assay": "Cell cycle arrest in human HL60 cells assessed as accumulation at G2/M phase at 1 uM after 48 hrs by propidium iodide staining-based flow cytometry (reference value: 18.4 +/- 1.3%)", "type": "functional"}, "[2]": {"test_system": "HL-60", "assay": "Cell cycle arrest in human HL60 cells assessed as accumulation at G2/M phase at 50 uM after 72 hrs by propidium iodide staining-based flow cytometry (reference value: 14.8 +/- 0.7%)", "type": "functional"}, "[3]": {"test_system": "HL-60", "assay": "Cell cycle arrest in human HL60 cells assessed as accumulation at pre-G1 phase at 50 uM after 72 hrs by propidium iodide staining-based flow cytometry (reference value: 0.14%)", "type": "functional"}, "[4]": {"test_system": "HL-60", "assay": "Cell cycle arrest in human HL60 cells assessed as accumulation at G0/G1 phase at 25 uM after 72 hrs by propidium iodide staining-based flow cytometry (reference value: 65.7 +/- 0.1%)", "type": "functional"}, "[5]": {"test_system": "HL-60", "assay": "Cell cycle arrest in human HL60 cells assessed as accumulation at S phase at 50 uM after 48 hrs by propidium iodide staining-based flow cytometry (reference value: 21.5 +/- 1.0%)", "type": "functional"}, "[6]": {"test_system": "HL-60", "assay": "Cell cycle arrest in human HL60 cells assessed as accumulation at pre-G1 phase at 1 uM after 72 hrs by propidium iodide staining-based flow cytometry (reference value: 0.14%)", "type": "functional"}, "[7]": {"test_system": "HL-60", "assay": "Cell cycle arrest in human HL60 cells assessed as accumulation at G2/M phase at 50 uM after 48 hrs by propidium iodide staining-based flow cytometry (reference value: 18.4 +/- 1.3%)", "type": "functional"}, "[8]": {"test_system": "HL-60", "assay": "Cell cycle arrest in human HL60 cells assessed as accumulation at Gn phase at 10 uM after 72 hrs by propidium iodide staining-based flow cytometry (reference value: 2.49 +/- 0.3%)", "type": "functional"}, "[9]": {"test_system": "HL-60", "assay": "Cell cycle arrest in human HL60 cells assessed as accumulation at Gn phase at 25 uM after 48 hrs by propidium iodide staining-based flow cytometry (reference value: 2.49 +/- 0.4%)", "type": "functional"}, "[10]": {"test_system": "HL-60", "assay": "Cell cycle arrest in human HL60 cells assessed as accumulation at G2/M phase at 25 uM after 48 hrs by propidium iodide staining-based flow cytometry (reference value: 18.4 +/- 1.3%)", "type": "functional"}, "[11]": {"test_system": "HL-60", "assay": "Cell cycle arrest in human HL60 cells assessed as accumulation at pre-G1 phase at 1 uM after 48 hrs by propidium iodide staining-based flow cytometry (reference value: 0.17%)", "type": "functional"}, "[12]": {"test_system": "HL-60", "assay": "Cell cycle arrest in human HL60 cells assessed as accumulation at G0/G1 phase at 10 uM after 48 hrs by propidium iodide staining-based flow cytometry (reference value: 57.0 +/- 1.0%)", "type": "functional"}, "[13]": {"test_system": "HL-60", "assay": "Cell cycle arrest in human HL60 cells assessed as accumulation at G0/G1 phase at 25 uM after 48 hrs by propidium iodide staining-based flow cytometry (reference value: 57.0 +/- 1.0%)", "type": "functional"}, "[14]": {"test_system": "HL-60", "assay": "Cell cycle arrest in human HL60 cells assessed as accumulation at G0/G1 phase at 1 uM after 72 hrs by propidium iodide staining-based flow cytometry (reference value: 65.7 +/- 0.1%)", "type": "functional"}, "[15]": {"test_system": "HL-60", "assay": "Cell cycle arrest in human HL60 cells assessed as accumulation at S phase at 25 uM after 72 hrs by propidium iodide staining-based flow cytometry (reference value: 16.4 +/- 0.8%)", "type": "functional"}, "[16]": {"test_system": "HL-60", "assay": "Induction of apoptosis in human HL60 cells assessed as nuclear fragmentation at 50 uM after 72 hrs by microscopy relative to vehicle-treated control", "type": "functional, cell-based"}, "[17]": {"test_system": "HL-60", "assay": "Induction of apoptosis in human HL60 cells assessed as cell shrinkage at 50 uM after 72 hrs by microscopy relative to vehicle-treated control", "type": "functional, cell-based"}, "[18]": {"molecular_target": "Glycogen synthase kinase-3 beta (Homo sapiens, UniProt P49841)", "sequence (P49841 whole entry)": "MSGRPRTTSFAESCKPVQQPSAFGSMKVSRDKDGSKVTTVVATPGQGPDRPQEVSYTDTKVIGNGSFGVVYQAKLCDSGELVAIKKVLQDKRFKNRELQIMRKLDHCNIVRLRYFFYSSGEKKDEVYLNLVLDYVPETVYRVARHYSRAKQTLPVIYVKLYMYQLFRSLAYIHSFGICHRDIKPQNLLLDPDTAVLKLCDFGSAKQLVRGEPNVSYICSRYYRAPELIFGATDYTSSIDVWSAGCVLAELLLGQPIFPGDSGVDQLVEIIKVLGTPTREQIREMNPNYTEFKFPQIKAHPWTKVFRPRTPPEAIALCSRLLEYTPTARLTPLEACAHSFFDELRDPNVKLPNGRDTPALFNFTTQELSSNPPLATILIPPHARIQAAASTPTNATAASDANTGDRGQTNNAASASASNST", "assay": "Inhibition of human recombinant GSK-3 beta after 30 mins by luminescence assay"}, "[19]": {"test_system": "HL-60", "assay": "Cell cycle arrest in human HL60 cells assessed as accumulation at pre-G1 phase at 10 uM after 48 hrs by propidium iodide staining-based flow cytometry (reference value: 0.17%)", "type": "functional"}, "[20]": {"test_system": "HL-60", "assay": "Cell cycle arrest in human HL60 cells assessed as accumulation at S phase at 10 uM after 48 hrs by propidium iodide staining-based flow cytometry (reference value: 21.5 +/- 1.0%)", "type": "functional"}, "[21]": {"test_system": "HL-60", "assay": "Cell cycle arrest in human HL60 cells assessed as accumulation at pre-G1 phase at 50 uM after 48 hrs by propidium iodide staining-based flow cytometry (reference value: 0.17%)", "type": "functional"}, "[22]": {"test_system": "HL-60", "assay": "Cell cycle arrest in human HL60 cells assessed as accumulation at S phase at 25 uM after 48 hrs by propidium iodide staining-based flow cytometry (reference value: 21.5 +/- 1.0%)", "type": "functional"}, "[23]": {"test_system": "HL-60", "assay": "Cell cycle arrest in human HL60 cells assessed as accumulation at G2/M phase at 10 uM after 48 hrs by propidium iodide staining-based flow cytometry (reference value: 18.4 +/- 1.3%)", "type": "functional"}, "[24]": {"test_system": "HL-60", "assay": "Cell cycle arrest in human HL60 cells assessed as accumulation at G0/G1 phase at 1 uM after 48 hrs by propidium iodide staining-based flow cytometry (reference value: 57.0 +/- 1.0%)", "type": "functional"}, "[25]": {"test_system": "HL-60", "assay": "Cell cycle arrest in human HL60 cells assessed as accumulation at G2/M phase at 10 uM after 72 hrs by propidium iodide staining-based flow cytometry (reference value: 14.8 +/- 0.7%)", "type": "functional"}, "[26]": {"test_system": "HL-60", "assay": "Cell cycle arrest in human HL60 cells assessed as accumulation at Gn phase at 1 uM after 48 hrs by propidium iodide staining-based flow cytometry (reference value: 2.49 +/- 0.4%)", "type": "functional"}, "[27]": {"test_system": "HL-60", "assay": "Cell cycle arrest in human HL60 cells assessed as accumulation at G0/G1 phase at 50 uM after 48 hrs by propidium iodide staining-based flow cytometry (reference value: 57.0 +/- 1.0%)", "type": "functional"}, "[28]": {"test_system": "HL-60", "assay": "Cell cycle arrest in human HL60 cells assessed as accumulation at Gn phase at 1 uM after 72 hrs by propidium iodide staining-based flow cytometry (reference value: 2.49 +/- 0.3%)", "type": "functional"}, "[29]": {"test_system": "HL-60", "assay": "Cell cycle arrest in human HL60 cells assessed as accumulation at pre-G1 phase at 25 uM after 72 hrs by propidium iodide staining-based flow cytometry (reference value: 0.14%)", "type": "functional"}, "[30]": {"test_system": "HL-60", "assay": "Cell cycle arrest in human HL60 cells assessed as accumulation at G2/M phase at 1 uM after 72 hrs by propidium iodide staining-based flow cytometry (reference value: 14.8 +/- 0.7%)", "type": "functional"}, "[31]": {"molecular_target": "Casein kinase I isoform delta (Homo sapiens, UniProt P48730)", "sequence (P48730 whole entry, canonical isoform)": "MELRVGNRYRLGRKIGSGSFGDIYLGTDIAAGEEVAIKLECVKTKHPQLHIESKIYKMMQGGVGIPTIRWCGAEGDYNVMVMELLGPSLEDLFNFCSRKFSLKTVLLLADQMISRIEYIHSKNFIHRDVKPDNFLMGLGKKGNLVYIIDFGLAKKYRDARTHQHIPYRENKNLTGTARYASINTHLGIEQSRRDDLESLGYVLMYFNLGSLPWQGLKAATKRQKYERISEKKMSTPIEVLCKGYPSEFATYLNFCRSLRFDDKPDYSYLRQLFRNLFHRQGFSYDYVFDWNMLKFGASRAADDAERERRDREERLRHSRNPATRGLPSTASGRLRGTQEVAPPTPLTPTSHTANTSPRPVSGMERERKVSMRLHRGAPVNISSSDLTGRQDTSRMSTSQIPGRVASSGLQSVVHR", "assay": "Inhibition of human recombinant casein kinase-1 delta using casein as substrate after 60 mins by kinase-glo luminescence assay"}, "[32]": {"test_system": "HL-60", "assay": "Cell cycle arrest in human HL60 cells assessed as accumulation at Gn phase at 25 uM after 72 hrs by propidium iodide staining-based flow cytometry (reference value: 2.49 +/- 0.3%)", "type": "functional"}, "[33]": {"test_system": "HL-60", "assay": "Induction of apoptosis in human HL60 cells assessed as cell membrane blebbing at 50 uM after 72 hrs by microscopy relative to vehicle-treated control", "type": "functional, cell-based"}, "[34]": {"test_system": "HL-60", "assay": "Cell cycle arrest in human HL60 cells assessed as accumulation at S phase at 1 uM after 48 hrs by propidium iodide staining-based flow cytometry (reference value: 21.5 +/- 1.0%)", "type": "functional"}, "[35]": {"test_system": "HL-60", "assay": "Cell cycle arrest in human HL60 cells assessed as accumulation at S phase at 10 uM after 72 hrs by propidium iodide staining-based flow cytometry (reference value: 16.4 +/- 0.8%)", "type": "functional"}}, "note": "Active and inactive are the calls of the source. The rule behind the calls is not given here."}
{"smiles": "Cl.N=C(N)Nc1ccc(Oc2cccc(NC(=N)Nc3ccc(Cl)c(C(F)(F)F)c3)c2)cc1", "values": [{"measurement": "Activity", "setting": "[1]", "result": 20.4, "unit": "%"}, {"measurement": "Activity", "setting": "[2]", "result": 13.6, "unit": "%"}, {"measurement": "Activity", "setting": "[3]", "result": 25.1, "unit": "%"}, {"measurement": "Activity", "setting": "[4]", "result": 73.4, "unit": "%"}, {"measurement": "Activity", "setting": "[5]", "result": 15.7, "unit": "%"}, {"measurement": "Activity", "setting": "[6]", "result": 0.13, "unit": "%"}, {"measurement": "Activity", "setting": "[7]", "result": 18.6, "unit": "%"}, {"measurement": "Activity", "setting": "[8]", "result": 3.36, "unit": "%"}, {"measurement": "Activity", "setting": "[9]", "result": 2.17, "unit": "%"}, {"measurement": "Activity", "setting": "[10]", "result": 20.2, "unit": "%"}, {"measurement": "Activity", "setting": "[11]", "result": 0.13, "unit": "%"}, {"measurement": "Activity", "setting": "[12]", "result": 68.9, "unit": "%"}, {"measurement": "Activity", "setting": "[13]", "result": 69.2, "unit": "%"}, {"measurement": "Activity", "setting": "[14]", "result": 61.7, "unit": "%"}, {"measurement": "Activity", "setting": "[15]", "result": 4.19, "unit": "%"}, {"measurement": "Activity", "setting": "[16]", "result": "Active"}, {"measurement": "Activity", "setting": "[17]", "result": "Active"}, {"measurement": "IC50", "setting": "[18]", "result": "> 100", "unit": "µM"}, {"measurement": "Activity", "setting": "[19]", "result": 0.32, "unit": "%"}, {"measurement": "Activity", "setting": "[20]", "result": 14.7, "unit": "%"}, {"measurement": "Activity", "setting": "[21]", "result": 12.5, "unit": "%"}, {"measurement": "Activity", "setting": "[22]", "result": 7.15, "unit": "%"}, {"measurement": "Activity", "setting": "[23]", "result": 14.6, "unit": "%"}, {"measurement": "Activity", "setting": "[24]", "result": 56.6, "unit": "%"}, {"measurement": "Activity", "setting": "[25]", "result": 18.9, "unit": "%"}, {"measurement": "Activity", "setting": "[26]", "result": 2.17, "unit": "%"}, {"measurement": "Activity", "setting": "[27]", "result": 44.6, "unit": "%"}, {"measurement": "Activity", "setting": "[28]", "result": 3.23, "unit": "%"}, {"measurement": "Activity", "setting": "[29]", "result": 2.22, "unit": "%"}, {"measurement": "Activity", "setting": "[30]", "result": 16.7, "unit": "%"}, {"measurement": "IC50", "setting": "[31]", "result": "> 100", "unit": "µM"}, {"measurement": "Activity", "setting": "[32]", "result": 2.56, "unit": "%"}, {"measurement": "Activity", "setting": "[33]", "result": "Active"}, {"measurement": "Activity", "setting": "[34]", "result": 20.6, "unit": "%"}, {"measurement": "Activity", "setting": "[35]", "result": 14.1, "unit": "%"}]}
